# Experimental data as given in USRE39088E1, “Amide compounds and use of the same” (Japan Tobacco, Inc., priority 1995, dated 2006).
# Counter-ions that a name gives are not always drawn. Like-named read-outs stand apart in the source and are kept apart here.
# Key:
# ALT in blood = test: Suppression of LPS/D-galactosamine-induced hepatitis; assay type: in vivo; conditions: tail vein, 10 minutes before LPS/D-galactosamine, ALT in blood at 6 hours, male C57BL/6 mice; for inhibition in vivo at 5 mg/kg / inhibition in vivo at 10 mg/kg: Mus musculus, iv
# Experimental: Suppression of LPS/D-galactosamine-induced hepatitis
# LPS (5 μg/kg)D-galactosamine (500 mg/kg) in physiological saline was intraperitoneally injected to male C57BL/6 mice to induce hepatitis. Six hours after the injection of LPS/D-galactosamine in physiological saline, blood was taken from the mice orbital venosus plexus. Plasma was separated from the blood, and ALT in blood was determined by a biochemical analyzer. The test sample was administered from the tail vein at 10 minutes before the injection of LPS/D-galactosamine in physiological saline, and the degree of suppression was investigated. The suppression by the test sample is shown in the ratio relative to the suppression in the control group.
# Suppression (%)=100-(ALT amount of group treated with test sample/ALT amount of control group)×100
# [1] = test system: TNF α in the peritoneal fluid; test: Suppression of LPS-induced peritonitis; assay type: in vivo, male Balb/c mice; conditions: test sample 50 mg/kg from the tail vein 60 minutes before LPS i.p.; TNF α in peritoneal fluid one hour after LPS, relative to control group; ** = p<0.01 from control
# Experimental: Suppression of LPS-induced peritonitis
# LPS (30 μg/ml, 1 ml) prepared with physiological saline containing 0.5% CMC (carboxymethylcellulose) was infra-peritoneally injected into male Balb/c mice to induce-peritonitis. One hour later, the mice were killed with carbon dioxide, and the amount of TNF α in the peritoneal fluid was determined using an ELISA kit.
# The test sample (50 mg/kg) was administered from the tail vein at 60 minutes before LPS injection, and the degree of suppression was investigated. The suppression by the test sample is shown in the ratio relative to the suppression in the control group.
# Suppression (%)=100-(TNR amount of group treated with test sample/TNF amount of control group)×100
# The results are shown in Table 89 wherein ** means the presence of significant difference by p<0.01 from the control group.
# IL-1 = test: Suppression of production of inflammatory cytokines: IL-1 in LPS-stimulated human peripheral blood monocytes (ELISA); assay type: cell-based; conditions: Monocyte, read-out: IC50 (μM) IL-1β
# Experimental: (§1) Suppression of production of inflammatory cytokines
# (§2) Thirty ml of human peripheral blood added with heparin was placed on Ficol-Paque (15 ml), and centrifuged at 400 G for 40 minutes at room temperature. The obtained monocyte fraction layers were collected and washed three times with E-MEM medium. The cells were adjusted to a final concentration of 0.5×10^5 cells/800 μl with RPMI-1640 medium containing 5% bovine fetal serum (2-mercaptoethanol), and seeded in a 24 well plant by 800 μl. A test sample (100 μl) was added and 100 μl of lipopolysarcharide (LPS, 100 μg/ml) was added one hour later. The supernatant was taken at 20 hours after stimulation with LPS, and amounts of various cytokines were determined using an ELISA kit.
# IL-8 = test: Suppression of production of inflammatory cytokines: IL-8 in LPS-stimulated human peripheral blood monocytes (ELISA); assay type: cell-based; conditions: supernatant 20 hours after LPS
# Experimental: as §1, §2
# TNF-α = test: Suppression of production of inflammatory cytokines: TNF-α in LPS-stimulated human peripheral blood monocytes (ELISA); assay type: cell-based; conditions: Monocyte, read-out: IC50 (μM) TNF
# Experimental: as §1, §2
# [2] = LPS-stimulated human peripheral blood monocytes, supernatant 20 hours after LPS, ELISA
SMILES,"IC50 (IL-8; Homo sapiens, Monocyte, 20 h)",inhibition in vivo at 10 mg/kg (ALT in blood),also measured
"CNCCCCOc1c(Cl)cc(C(=O)N[C@@H](Cc2ccccc2)C(=O)OC)c(O)c1Cl.Cl [Example 1, N-[3,5-Dichloro-2-hydroxy-4-(4-methylaminobutoxy)benzoyl]-L-phenylalanine methyl ester hydrochloride]",–,78%,"inhibition in vivo at 5 mg/kg (ALT in blood; dose 5 mg/kg): 88%; Inhibition (%) [1]: 64** %; IC50 (IL-1; Homo sapiens, 20 h): 0.002 µM; IC50 (IL-8; Monocyte): 0.009 µM; IC50 (TNF-α; Homo sapiens, 20 h): 0.008 µM"
COC(=O)[C@H](Cc1ccccc1)NC(=O)c1ccc(OCCCN)cc1O [Example 3],> 30 µM,–,IC50 (IL-1; [2]): > 30 µM; IC50 (TNF-α; [2]): 14 µM
COC(=O)[C@H](Cc1ccccc1)NC(=O)c1ccc(OCCCCCN)cc1O [Example 5],6 µM,–,IC50 (IL-1; [2]): 75 µM; IC50 (TNF-α; [2]): 6 µM
CNCCCCOc1cc(O)c(C(=O)N[C@@H](Cc2ccccc2)C(=O)OC)cc1Cl.Cl [Example 9],< 0.3 µM,–,Inhibition (%) [1]: 21%
CNCCCCOc1c(Cl)cc(C(=O)N[C@@H](Cc2ccccc2)C(=O)OC)c(O)c1C [Example 10],0.6 µM,77%,–
CCOC(=O)C(Cc1ccccc1)NC(=O)c1cc(Cl)c(OCCCCNC)c(Cl)c1O (stereo not drawn) [Example 22],–,51%,IC50 (IL-8): < 0.01 µM
CCCCCCOC(=O)[C@H](Cc1ccccc1)NC(=O)c1cc(Cl)c(OCCCCNC)c(Cl)c1O [Example 31],< 0.01 µM,–,inhibition in vivo at 5 mg/kg (ALT in blood; dose 5 mg/kg): 87%
NCCCCOc1c(Cl)cc(C(=O)N[C@@H](Cc2ccccc2)C(=O)OC2CCCCC2)c(O)c1Cl [Example 45],0.004 µM,30%,IC50 (IL-1; [2]): 0.0008 µM; IC50 (TNF-α; [2]): 0.004 µM
CNCCCCOc1c(Cl)cc(C(=O)N[C@@H](Cc2ccccc2)C(=O)OC2CCCCC2)c(O)c1Cl [Example 46],< 0.01 µM,57%,–
CNCCCCOc1c(Cl)cc(C(=O)N[C@@H](Cc2ccccc2)C(=O)NCC(=O)O)c(O)c1Cl [Example 50],28 µM,15%,–
CCSC(=O)C(Cc1ccccc1)NC(=O)c1cc(Cl)c(OCCCCN)c(Cl)c1O.Cl (stereo not drawn) [Example 52],< 0.01 µM,–,Inhibition (%) [1]: 31** %
COC(=O)[C@H](Cc1ccccc1)NC(=O)c1cc(Cl)c(OCCN2CCNC(C)C2)c(Cl)c1O (stereo partly drawn) [Example 60],0.03 µM,42%,–
"CNCCCCOc1c(Cl)cc(C(=O)N[C@@H](Cc2ccccc2)C(=O)OC)c(OC(=O)c2ccccc2)c1Cl [Example 105, N-[2-Benzoyloxy-3,5-dichloro-4-(4-methylaminobutoxy)benzoyl]-L-phenylalanine methyl ester hydrochloride]",0.005 µM,40%,IC50 (IL-1; [2]): 0.001 µM; IC50 (TNF-α; [2]): 0.004 µM
CCOC(=O)C(Cc1ccccc1)NC(=O)c1cc(Cl)c(OCCCCNC)c(Cl)c1OC(C)=O (stereo not drawn) [Example 117],< 0.01 µM,54%,–
"CNCCCCOc1c(Cl)cc(C(=O)N[C@@H](Cc2ccccc2)C(=O)O)c(O)c1Cl [Example 126, N-[3,5-Dichloro-2-hydroxy-4-(4-methylaminobutoxy)benzoyl]-L-phenylalanine hydrochloride]",0.8 µM,27%,–
NCCCCOc1c(Cl)cc(C(=O)N[C@@H](Cc2ccccc2)C(=O)O)c(O)c1Cl [Example 127],0.2 µM,–,inhibition in vivo at 5 mg/kg (ALT in blood; dose 5 mg/kg): 82%
"Cl.NCCCCOc1c(Cl)cc(C(=O)N[C@@H](Cc2ccccc2)C(=O)Nc2ccccc2)c(O)c1Cl [Example 138, N-[3,5-Dichloro-2-hydroxy-4-(4-aminobutoxy)benzoyl]-L-phenyl-alanylaminobenzene hydrochloride]",–,–,Inhibition (%) (ALT in blood; dose 5 mg/kg): 22%; IC50 (IL-8): 1 µM
"CCOC(=O)[C@H](Cc1ccccc1)NC(=O)c1ccc(-c2noc(CCCCNC)n2)cc1O.Cl [Example 148, (2S)-3-Phenyl-2-[4-[5-(4-methylaminobutyl)-1,2,4-oxadizol-3-yl]-2-hydroxybenzoylamino]propionic acid ethyl ester hydrochloride]",–,–,Inhibition (%) [1]: 19%; IC50 (IL-8): 4 µM
"CCOC(=O)[C@H](Cc1ccccc1)NC(=O)c1cc(Cl)c(OC(=O)CCN2CCNCC2)c(Cl)c1O [Example 155, N-[3,5-Dichloro-2-hydroxy-4-(3-piperazinylpropionyloxy)benzoyl]-L-phenylalanine ethyl ester dihydrochloride]",–,–,Inhibition (%) [1]: 28** %; IC50 (IL-8; Monocyte): 0.2 µM

# Now from value to compound, other results behind:
"IC50 (IL-8; Homo sapiens, Monocyte, 20 h)",SMILES,inhibition in vivo at 10 mg/kg (ALT in blood),also measured
0.01 µM,"CCOC(=O)[C@H](Cc1ccccc1)NC(=O)c1cc(Cl)c(OCCN2CCN(C)CC2)c(Cl)c1O [Example 2, N-{3,5-Dichloro-2-hydroxy-4-[2-(4-methylpiperazin-1-yl)ethoxy]-benzoyl}-L-phenylalanine ethyl ester dihydrochloride]",65%,–
2 µM,COC(=O)[C@H](Cc1ccccc1)NC(=O)c1ccc(OCCCCN)cc1O.Cl [Example 4],42%,Inhibition (%) [1]: 38** %; IC50 (IL-1; [2]): 3 µM; IC50 (TNF-α; [2]): 2 µM
14 µM,COC(=O)[C@H](Cc1ccccc1)NC(=O)c1ccc(OCCCCCCN)cc1O [Example 6],–,IC50 (IL-1; [2]): 14 µM; IC50 (TNF-α; [2]): 6 µM
< 0.01 µM,CCOC(=O)C(Cc1ccccc1)NC(=O)c1cc(Cl)c(OCCCCN)c(Cl)c1O.Cl (stereo not drawn) [Example 19],–,Inhibition (%) [1]: 32** %
< 0.01 µM,CC(C)OC(=O)[C@H](Cc1ccccc1)NC(=O)c1cc(Cl)c(OCCCCN)c(Cl)c1O [Example 27],67%,–
0.5 µM,COC(=O)[C@H](Cc1ccccc1)NC(=O)c1cc(Cl)c(OCCCCNC(=N)N)c(Cl)c1O [Example 32],78%,–
0.3 µM,COC(=O)[C@H](Cc1ccccc1)NC(=O)c1cc(Cl)c(OCCOCCN(C)C)c(Cl)c1O [Example 37],80%,–
